This is an account of results in patent US20070185184A1, “Carbazole derivatives” (Serenex, Inc., priority 2005, published 2007).

One assay has as its system cell cycle progression in M-phase. In words: Analysis of cell cycle status: M-phase block (phospho-Histone 3 serine 10, ArrayScan). The note with it: 5 hours incubation; vs 500 nM vinblastine (100% M-phase block) and DMSO (0%); read-out: M-phase block activities (IC50 range). The assay is classed as cell-based. As to the method:
Cells are seeded onto 96-well Packard View plates and incubated overnight. Test compounds are added to individual wells the following day at 10× concentrations and the plates returned to the incubator.
For identification of compounds that blocked cell cycle progression in M-phase, cells are incubated with compounds for 5 hours. After incubation, the cell growth media is removed and the cell monolayers are fixed with 3.7% formaldehyde, followed by treatment with 0.1% Triton X-100, and probed with a monoclonal phospho-specific Histone 3 serine 10 antibody. Bound primary antibody is detected with a FITC or TRITC conjugated secondary antibody. The cellular DNA is stained using Hoechst dye. Fixed cells are visualized using an ArrayScan 4.5 HCS plate reader. Cells positive for antibody binding are identified and quantified using the Target Activation Algorithm. IC50 Data from test compounds is generated by comparing test compound activity to the percentage of cells in M-phase detected in 500 nM vinblastine treated cells (100% M-phase block), and the percentage of M-phase cells detected in the DMSO control treated cells (0% M-phase block).
As to `CC(=O)c1cn(-c2ccc(NC(N)=O)cc2Cl)c2ccc(Cl)cc12` [Compound 17, [4-(3-Acetyl-5-chloro-indol-1-yl)-3-chloro-phenyl]-urea], the IC50 was 500 to 5000 nM.

Regarding `CC(=O)NC(=O)Nc1ccc(-n2c3c(c4ccccc42)C(=O)CCC3)c(Cl)c1` [Compound 40, 1-Acetyl-3-[3-chloro-4-(4-oxo-1,2,3,4-tetrahydro-carbazol-9-yl)-phenyl]-urea], the IC50 is less than 500 nM.

For the compound `CC(=O)c1cn(-c2ccc(N)cc2Cl)c2cc(Cl)ccc12` [Compound 18, 1-[1-(4-Amino-2-chloro-phenyl)-6-chloro-1H-indol-3-yl]-ethanone], the IC50 was in the range of 500 to 5000 nM.

`CC(=O)c1cn(-c2ccc(C(N)=O)cc2Cl)c2cc(Cl)ccc12` [Compound 44, 4-(3-Acetyl-6-chloro-indol-1-yl)-3-chloro-benzamide]: the IC50 is less than 500 nM.

As for `NC(=O)c1ccc(-n2c3c(c4ccccc42)C(=O)CCC3)c(C(F)(F)F)c1` [Compound 29, 4-(4-Oxo-1,2,3,4-tetrahydro-carbazol-9-yl)-3-trifluoromethyl-benzamide], the IC50 was less than 500 nM.

Turning to `C=CCNc1ccc(-n2c3c(c4ccccc42)C(=O)CCC3)c(C(F)(F)F)c1` [Compound 38, 9-(4-Allylamino-2-trifluoromethyl-phenyl)-1,2,3,9-tetrahydro-carbazol-4-one], the IC50 fell in the range of 500 to 5000 nM.

As for `NC(=O)Nc1ccc(-n2c3c(c4cc(Cl)ccc42)C(=O)CCC3)c(Cl)c1` [Compound 41, [3-Chloro-4-(6-chloro-4-oxo-1,2,3,4-tetrahydro-carbazol-9-yl)-phenyl]-urea], the IC50 was less than 500 nM.

As for `COc1cc(-n2cc(C(C)=O)c3ccccc32)ccc1C(N)=O` [Compound 43, 4-(3-Acetyl-indol-1-yl)-2-methoxy-benzamide], the IC50 is less than 500 nM.

Turning to `CC(=O)c1cn(-c2ccc(N)cc2Br)c2ccccc12` [Compound 37, 1-[1-(4-Amino-2-bromo-phenyl)-1H-indol-3-yl]-ethanone], the IC50 was 5000 to 50000 nM.

In the case of `COCCNc1cc(-n2cc(C(C)=O)c3ccccc32)ccc1C(N)=O` [Compound 35, 4-(3-Acetyl-indol-1-yl)-2-(2-methoxy-ethylamino)-benzamide], the IC50 was 500 to 5000 nM.

The next assay has as its system PC-3 cell proliferation. The assay can be described thus: Cell proliferation assay (Cyquant DNA assay). The assay is classed as cell-based. The note with it: Homo sapiens; PC-3 cells, 2-5 days incubation, vs DMSO (100%) and 10 μM Actinomycin D (0%); read-out: inhibitory activities against PC-3 cell proliferation (IC50 range). The procedure: A panel of cancer cell lines is obtained from the DCTP Tumor Repository, National Cancer Institute (Frederick, Md.) or ATCC (Rockville, Md.). Cell cultures are maintained in Hyclone RPMI 1640 medium (Logan, Utah) supplemented with 10% fetal bovine serum and 20 mM HEPES buffer, final pH 7.2, at 37° C. with a 5% CO2 atmosphere. Cultures are maintained at sub-confluent densities.
For proliferation assays, cells are seeded with the appropriate medium into 96 well plates at 1,000-2,500 cells per well, depending on the cell line, and are incubated overnight. The following day, test compound, DMSO solution (negative control), or Actinomycin D (positive control) is added to the appropriate wells as 10× concentrated stocks prepared in phosphate buffered saline. The cell plates where then incubated for an additional 2-5 days, depending on the cell line, to allow proliferation to occur. To measure cell density, growth medium is removed from the adherent cell lines, and the plates stored at −80° C. Using these assay plates, relative amounts of DNA in each well is determined using the Cyquant DNA assay kit from […] (Eugene, Oreg.) following the manufacturer's directions. Results for each compound treatment are compared to DMSO vehicle control (100%) and 10 μM Actinomycin D treated cells (0%).
In the case of `NC(=O)c1ccc(-n2c3c(c4ccccc42)C(=O)NCC3)c(Cl)c1` [Compound 22, 3-Chloro-4-(1-oxo-1,2,3,4-tetrahydro-pyrido[4,3-b]indol-5-yl)-benzamide], the IC50 was 500 to 5000 nM.

Consider `C/C(=N\O)c1cn(-c2ccc(C(N)=O)cc2Cl)c2ccccc12` [Compound 7, 4-(3-(1-hydroxyimino-ethyl)-indol-1-yl)-3-chloro-benzamide], for which the IC50 is less than 500 nM.

Take `NC(=O)Nc1ccc(-n2c3c(c4ccccc42)C(=O)CCC3)c(Cl)c1` [Compound 13, 1-(3-chloro-4-(4-oxo-3,4-dihydro-1H-carbazol-9(2H)-yl)phenyl)urea]: the IC50 is less than 500 nM.

Consider `CC(=O)c1cn(-c2ccc(C(N)=O)cc2Cl)c2ccccc12` [Compound 6, 4-(3-Acetyl-indol-1-yl)-3-chloro-benzamide], for which the IC50 is less than 500 nM.

In the case of `NC(=O)c1ccc(C(F)(F)F)c(-n2c3c(c4ccccc42)C(=O)CCC3)c1` [Compound 14, 3-(4-Oxo-1,2,3,4-tetrahydro-carbazol-9-yl)-4-trifluoromethyl-benzamide], the IC50 was 5000 to 50000 nM.

Take `COCCNc1ccc(-n2c3c(c4ccccc42)C(=O)CCC3)c(C(F)(F)F)c1` [Compound 10, 9-[4-(2-methoxy-ethylamino)-2-trifluoromethyl-phenyl]-1,2,3,9-tetrahydro-carbazol-4-one]: the IC50 fell in the range of 500 to 5000 nM.

On to `NC(=S)c1ccc(-n2c3c(c4ccccc42)C(=O)CCC3)c(Br)c1` [Compound 5, 3-Bromo-4-(4-oxo-1,2,3,4-tetrahydro-carbazol-9-yl)thiobenzamide], for which the IC50 is less than 500 nM.

For `C=CCNc1cc(-n2c3c(c4ccccc42)C(=O)CCC3)ccc1C(N)=O` [Compound 20, 2-Allylamino-4-(4-oxo-1,2,3,4-tetrahydro-carbazol-9-yl)-benzamide], the IC50 was 500 to 5000 nM.

Take `NC(=O)c1ccc(-n2c3c(c4ccccc42)C(=O)CCC3)c(Cl)c1` [Compound 2, 3-Chloro-4-(4-oxo-1,2,3,4-tetrahydro-carbazol-9-yl)benzamide]: the IC50 was less than 500 nM.

As for `NC(=O)c1ccc(-n2c3c(c4ccccc42)/C(=N/O)CCC3)c(Br)c1` [Compound 4, 3-Bromo-4-(4-hydroxyimino-1,2,3,4-tetrahydro-carbazol-9-yl)benzamide], the IC50 was in the range of 500 to 5000 nM.
